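Grown in 96-well plates, cells were treated for 48 hours with each compound at five concentrations. Insufficient inhibition: endpoint recorded as highest concentration tested. TGI denotes the concentration required for complete inhibition of growth.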 Where a SMILES comes first, the peptide text is derived from it. The star is where a group is joined. Boc = CC(C)(C)OC(=O)*
Assays:
Assay in all cases: NCI-60 cell line screen, 48 h
NCI-H522 lung = tested on: NCI-H522 lung
SF-539 CNS = tested on: SF-539 CNS
HL-60(TB) leukemia = tested on: HL-60(TB) leukemia
OVCAR-8 ovarian = tested on: OVCAR-8 ovarian
U251 CNS = tested on: U251 CNS
UACC-257 melanoma = tested on: UACC-257 melanoma
HT29 colon = tested on: HT29 colon
PC-3 prostate = tested on: PC-3 prostate
UO-31 renal = tested on: UO-31 renal
CCRF-CEM leukemia = tested on: CCRF-CEM leukemia

SMILES | TGI (NCI-H522 lung) | TGI (SF-539 CNS) | TGI (HL-60(TB) leukemia) | TGI (OVCAR-8 ovarian) | TGI (U251 CNS) | TGI (UACC-257 melanoma) | TGI (HT29 colon) | TGI (PC-3 prostate) | TGI (UO-31 renal) | TGI (CCRF-CEM leukemia)
Cc1c(Cl)nc(Nc2nc3ccccc3[nH]2)nc1Cl | > 100 µM | > 100 µM | > 100 µM | > 100 µM | > 100 µM | > 100 µM | 89 µM | > 100 µM | > 100 µM | –
CCCN1C(=O)CC(C)N(Cc2ccccc2Cl)C1=S (stereo not given) | 56.6 µM | 36 µM | > 100 µM | 72.1 µM | 67.8 µM | 38 µM | > 100 µM | 55.7 µM | – | > 100 µM
Cc1ccsc1/C=N/Nc1nc2ccccc2s1 | – | – | – | > 100 µM | 28.3 µM | 51.4 µM | > 100 µM | 50.1 µM | > 100 µM | 28.8 µM
CC(O)c1cc2c(s1)C(=O)c1sccc1C2=O (stereo not given) | 0.602 µM | – | > 100 µM | 0.616 µM | – | 0.0358 µM | 0.597 µM | 1.43 µM | 0.359 µM | > 100 µM
CCOC(=O)c1cc(-c2cc(OC)c(OC)c([N+](=O)[O-])c2)c([N+](=O)[O-])n1C | > 10 µM | > 10 µM | > 10 µM | > 10 µM | > 10 µM | > 10 µM | > 10 µM | – | > 10 µM | > 10 µM
C[C@]12CCC(=O)C=C1CC[C@@H]1[C@@H]2[C@@H](O)C[C@@]2(C)[C@H]1CC[C@]2(O)C(=O)COC(=O)COCC(=O)O | > 100 µM | > 100 µM | > 100 µM | > 100 µM | > 100 µM | > 100 µM | > 100 µM | – | > 100 µM | > 100 µM
CN(C)c1ccc(C(=C(c2ccc(N(C)C)cc2)c2ccc(N(C)C)cc2)c2ccc(N(C)C)cc2)cc1 | 1.12 µM | 28 µM | 26.5 µM | 44.7 µM | 28.1 µM | 34.8 µM | 35.2 µM | – | 39.9 µM | 50.4 µM
COC(=O)C(Cc1c[nH]c2ccccc12)NC(=O)C(Cc1c[nH]c2ccccc12)NC(=O)C(Cc1c[nH]c2ccccc12)NC(=O)C(Cc1c[nH]c2ccccc12)NC(=O)C(Cc1c[nH]c2ccccc12)NC(=O)C(Cc1c[nH]c2ccccc12)NC(=O)OC(C)(C)C (stereo not given) (Boc-WWWWWW-OMe; configuration not given here) | > 100 µM | – | > 100 µM | > 100 µM | > 100 µM | > 100 µM | > 100 µM | > 100 µM | > 100 µM | > 100 µM
COc1cc2c(cc1OC)C(C(CO)CO)N(CC(O)CCl)CC2 (stereo not given) | > 100 µM | > 100 µM | > 100 µM | > 100 µM | > 100 µM | > 100 µM | > 100 µM | – | > 100 µM | > 100 µM
O=C(/N=C/c1c(O)c2ccccc2oc1=O)Nc1ccccc1 | > 100 µM | > 100 µM | > 100 µM | > 100 µM | > 100 µM | > 100 µM | > 100 µM | – | > 100 µM | > 100 µM
O=S(=O)(c1ccccc1)n1c2ccc(Br)cc2c2nc3ccccc3nc21 | > 100 µM | – | – | > 100 µM | > 100 µM | > 100 µM | > 100 µM | > 100 µM | > 100 µM | > 100 µM
COc1ccc(-c2cc(=O)c3cc4c(cc3[nH]2)OCO4)cc1OC | > 100 µM | > 100 µM | > 100 µM | > 100 µM | > 100 µM | – | > 100 µM | – | > 100 µM | > 100 µM
COC(=O)/C=C\n1c(C)cc(=O)[nH]c1=O | > 100 µM | > 100 µM | – | > 100 µM | > 100 µM | > 100 µM | > 100 µM | > 100 µM | > 100 µM | > 100 µM
N#CC1=C(N)n2c(s/c(=C\c3ccc(Cl)cc3)c2=O)=C(c2nc3ccccc3[nH]2)C1c1ccc(Cl)cc1 (stereo not given) | 3.68 µM | 3.56 µM | 6.45 µM | 3.78 µM | 2.89 µM | 7.84 µM | – | – | > 100 µM | 4.23 µM
COC(=O)C1=C(C(=O)OC)C(C(=O)c2ccc(Br)cc2)N2N=C(c3ccc(Cl)cc3)C=CC12 (stereo not given) | > 100 µM | – | > 100 µM | > 100 µM | > 100 µM | > 100 µM | – | > 100 µM | > 100 µM | > 100 µM
NC(N)=N/N=C/c1nc2n(c1[N+](=O)[O-])CCS2 | > 100 µM | > 100 µM | 55 µM | > 100 µM | 89.3 µM | 44.6 µM | > 100 µM | > 100 µM | > 100 µM | –
O=[N+]([O-])C1CC/C(=N/O)c2nonc21 (stereo not given) | – | > 10 µM | > 10 µM | > 10 µM | > 10 µM | > 10 µM | > 10 µM | > 10 µM | > 10 µM | > 10 µM
CC1=Nc2nc(Cl)cn2C(=O)C1(Cl)Cl | > 10 µM | > 10 µM | > 10 µM | > 10 µM | > 10 µM | – | > 10 µM | > 10 µM | > 10 µM | > 10 µM
CCOP(=O)(OCC)/C(C#N)=C/c1cn(C)cn1 | > 100 µM | > 100 µM | – | > 100 µM | > 100 µM | > 100 µM | > 100 µM | > 100 µM | > 100 µM | > 100 µM
O=c1[nH]c(=O)n(C2OC(COP(=O)(O)OP(=O)(O)OC3OC(CO)C(O)C(O)C3O)C(O)C2O)cc1F (stereo not given) | 7.75 µM | 1.49 µM | > 100 µM | > 100 µM | > 100 µM | 48.9 µM | > 100 µM | – | 2.29 µM | > 100 µM
NC(CCCC(N)P(=O)(O)c1ccccc1)P(=O)(O)c1ccccc1 (stereo not given) | > 261 µM | > 261 µM | > 261 µM | > 261 µM | > 261 µM | > 261 µM | > 261 µM | – | > 261 µM | > 261 µM
Cc1[nH]c2c(c1C)S(=O)(=O)c1cc3ccccc3nc1N2 | 52 µM | 25.2 µM | – | 30.4 µM | 23.8 µM | > 100 µM | 28.2 µM | > 100 µM | 56.9 µM | 45.8 µM
CCCCc1ccc(Nc2nc3c(ncn3C3CC(O)C(CN=[N+]=[N-])O3)c(=O)[nH]2)cc1 (stereo not given) | > 100 µM | – | > 100 µM | > 100 µM | > 100 µM | > 100 µM | > 100 µM | > 100 µM | > 100 µM | > 100 µM

Source: PubChem BioAssay (NCI)
